Assays:
[1] = tested on: A549 cells; assay: Clonogenic Survival Assay in A549 cells; format: cell-based, human; settings: for Fold 2 Gy / Fold 4 Gy: vs DMSO; for % survival @ 0 Gy w/out IR: no IR
Protocol: Human cancer cell lines, including MCF-7 human breast carcinoma cell line and A549 human lung carcinoma cell line, and HCT116 p53 wild-type and HCT116 p53−/− cell lines were obtained from ATCC. MCF7 and HCT116 cells were cultured in Dulbecco's modified Eagle's medium (DMEM (Gibco #11995-065). MDA-MB-231 human triple negative breast cancer cell line and FADU, human head and neck squamous cell carcinoma line, were obtained from Charles River Laboratories (Morrisville, NC). MDA-MB-231 and A549 cells were cultured in RPMI 1640 medium (Gibco, 11875-093). FADU cells were cultured in Minimum Essential Medium α (MEM α) (Gibco, 12571-063) supplemented with 1 mM Sodium Pyruvate (Gibco, 11360-070), 1×MEM Non-Essential Amino Acids (Gibco, 11140-050). All cell lines were supplemented with 10% fetal bovine serum (FBS) (Corning, 35-010-CV) and 1× Antibiotic-Antimycotic (Gibco #15240-062) and were grown at 37° C. in 5% CO2. All cell lines were authenticated by short tandem repeat profiling and tested negative for mycoplasma.
This assay was performed with Compound 569 as an exemplary Formula (I) compound. Cells were plated in 6-well plates at different densities: 250 cells for no IR control, 5000 cells for 2 Gy of IR and 10000 cells for 4 Gy of IR and cultured overnight. The next day, MCF7 cells were preincubated with compound 569 at 100, 250, 500, or 1000 nM or DMSO for 30 min before being exposed to increasing doses of IR (0, 2, or 4 Gy). The A549 cells were incubated with Compound 569 at 500 or 1000 nM or with DMSO for 30 min before being exposed to increasing doses of IR (0, 2, or 4 Gy). After IR, cells were continuously incubated with DMSO or compound 569 for 5 h before the culture medium was removed and cells were washed with PBS. Cells were cultured in complete medium in the absence of inhibitor for 9 days. Then cells were stained (PBS, […], 0.1% crystal violet) rinsed with water and dried.

[2] = tested on: FADU tumors; assay: In vivo tumor growth delay study, FADU subcutaneous human xenograft mouse model
Protocol: (§1) Female NCr nu/nu mice (Crl:NU(NCr)-Foxn1nu, Strain 490) were obtained from Charles River at 5-6 weeks of age.
(§2) FADU or MDA-MB-231 cells were harvested during log phase growth for in vivo implantation. The resuspended cells were washed three times in phosphate buffered saline (PBS) before preparing the working dilution in PBS. FADU cells were diluted to 1×10^7 cells/mL and MDA-MB-231 cells were diluted to 5×10^7 cells/mL. Each mouse was injected subcutaneously in the right flank with 100 μL of the cellular suspension. Tumor growth was monitored until the tumors reached a target volume of at least 100 mm^3, at which point mice were randomly stratified into four treatment groups.
(§3) Following implantation of the tumor cell lines, mice were monitored once weekly for tumor development. Upon detection, tumors were measured in two dimensions using digital calipers. Tumors were treated after reaching at least 100 mm^3 and were measured two to three times weekly following enrollment in one of the treatment groups. The study endpoint was defined as tumor quintupling from the volume at time of treatment.
(§4) The vehicle used in this study was 0.5% (Hydroxypropyl)methyl cellulose (HPMC) and 0.2% Tween80 dissolved in deionized water. The pH of the vehicle was adjusted to 7.0-8.0 and the vehicle was stored at 4° C. On each day of in vivo treatment an appropriate mass of test compound was added to the vehicle at room temperature. The mixture was vortexed as necessary to generate a final concentration of 1.6 mg/mL.
(§5) In vivo tumor growth delay study was performed as follows. Following implantation of the tumor cell lines, mice were monitored once weekly for tumor development. Upon development of a tumor measuring at least 100 mm^3, tumor-bearing mice were stratified to one of 4 groups, utilizing 5 mice per group. Tumor volumes were between 100 and 500 mm^3. Vehicle or compound 569 (10 mg/kg) were administered by oral gavage once daily for three consecutive days (qd×3), alone or in combination with focal radiation. The delivered volume of vehicle or compound 569 was adjusted based on body weight of the individual animals. […]
(§6) Prism (GraphPad) was used for graphical presentations. […] In order to adjust for the differing tumor sizes at the start of treatment, the relative tumor volume was calculated by dividing the tumor volume at each time point by the volume at baseline. […] When an animal exited the study due to tumor quintupling, the final tumor volume recorded for the animal was included with the data used to calculate the median volume at subsequent time points. […] Differences in quintupling-free survival between the four treatment groups were evaluated with a log-rank test. […]

[3] = tested on: MDA-MB-231 tumors; assay: In vivo tumor growth delay study, MDA-MB-231 subcutaneous human xenograft mouse model
Protocol: as §1, §2, §3, §4, §5, §6

[4] = Group 4: compound 569 10 mg/kg 45 min prior to 3 Gy focal radiation, qd×3
[5] = Group 4: compound 569 + 3 Gy qd×3, P<0.01, logrank

SMILES: CC(C)NCCOc1ncc(-c2cc3c4c(cnc3cc2F)N(C)C(=O)C42CCC2)cc1NS(C)(=O)=O [Compound 569, N-(5-(7′-Fluoro-3′-methyl-2′-oxo-2′,3′-dihydrospiro[cyclobutane-1,1′-pyrrolo[2,3-c]quinolin]-8′-yl)-2-(2-(isopropylamino)ethoxy)pyridin-3-yl)methanesulfonamide]
- cellular toxicity in the absence of IR ([1]; 5-h exposure): without evidence of cellular toxicity
- radiosensitization ([1]; 5-h exposure, 500 and 1000 nM, 0, 2, 4 Gy): significant degree of radiosensitization
- Clonogenic survival ratio 0 Gy ([1]; 569 500 nM): 1.000
- Clonogenic survival ratio 2 Gy ([1]; 569 500 nM): 0.0780
- Fold 2 Gy ([1]; 569 500 nM): 9.3
- Clonogenic survival ratio 4 Gy ([1]; 569 500 nM): 0.0044
- Fold 4 Gy ([1]; 569 500 nM): 64
- % survival @ 0 Gy w/out IR ([1]; 569 500 nM): 110%
- Clonogenic survival ratio 0 Gy ([1]; 569 1000 nM): 1.000
- Clonogenic survival ratio 2 Gy ([1]; 569 1000 nM): 0.0520
- Fold 2 Gy ([1]; 569 1000 nM): 14
- Clonogenic survival ratio 4 Gy ([1]; 569 1000 nM): 0.0015
- Fold 4 Gy ([1]; 569 1000 nM): 188
- % survival @ 0 Gy w/out IR ([1]; 569 1000 nM): 103%
- median time to endpoint (tumor quintupling) ([2]; Group 2: Compound 569 10 mg/kg po qd×3 alone): 14 days
- tumor growth curves and quintupling-free survival ([2]; Group 2: Compound 569 10 mg/kg qd×3 alone vs vehicle (Group 1)): nearly identical to those for Group 1
- median time to endpoint (tumor quintupling) [2, 4]: 42 days
- overall survival (quintupling-free) [2, 5]: significantly improved compared to Group 1, Group 2, and Group 3
- median time to endpoint (tumor quintupling) ([3]; Group 2: compound 569 10 mg/kg po qd×3 alone): 17 days
- tumor growth curves and quintupling-free survival ([3]; Group 2: compound 569 10 mg/kg qd×3 alone vs vehicle (Group 1)): nearly identical to those for Group 1
- median time to endpoint (tumor quintupling) [3, 4]: 43 days
- overall survival (quintupling-free) [3, 5]: significantly improved compared to Group 1, Group 2, and Group 3

Reference: patent publication US20250268873A1, “COMBINATION OF DUAL ATM AND DNA-PK INHIBITORS AND IMMUNOTHERAPEUTIC AGENTS FOR USE IN CANCER THERAPY” (XRAD THERAPEUTICS, INC., priority 2021, published 2025)
